± gives the uncertainty stated by the source.
Experiment: xn = mol fraction of the nth substance listed

CCCCCCCCCCCCCC[n+]1ccccc1.O=C([O-])C(O)c1ccccc1 + NCC(=O)NCC(=O)O + O
electrical conductivity [S/m], 101 kPa
Conditions | 293.15 K | 298.15 K | 303.15 K | 308.15 K | 313.15 K
x1 = 5.26e-06, x2 = 0.0009002 | 0.00276 ± 0.00066 | 0.00323 ± 0.00075 | 0.00375 ± 0.00084 | 0.00433 ± 0.00094 | 0.005 ± 0.001
x1 = 6.01e-06, x2 = 0.001799 | 0.00408 ± 0.0007 | 0.00487 ± 0.0008 | 0.00569 ± 0.00092 | 0.0066 ± 0.001 | 0.0077 ± 0.0012
x1 = 6.85e-06, x2 = 0 | 0.00248 ± 0.00074 | 0.00278 ± 0.00083 | 0.00309 ± 0.00092 | 0.0034 ± 0.001 | 0.0037 ± 0.0011
x1 = 9.97e-06, x2 = 0.0009002 | 0.00403 ± 0.00072 | 0.00465 ± 0.00081 | 0.00533 ± 0.00091 | 0.0061 ± 0.001 | 0.0069 ± 0.0011
x1 = 1.185e-05, x2 = 0.001799 | 0.00561 ± 0.00081 | 0.00655 ± 0.00092 | 0.0076 ± 0.001 | 0.0088 ± 0.0012 | 0.01 ± 0.0013
x1 = 1.424e-05, x2 = 0 | 0.00472 ± 0.00079 | 0.00529 ± 0.00089 | 0.00587 ± 0.00099 | 0.0065 ± 0.0011 | 0.0071 ± 0.0012
x1 = 1.486e-05, x2 = 0.0009002 | 0.0054 ± 0.0008 | 0.00621 ± 0.00092 | 0.0071 ± 0.001 | 0.008 ± 0.0011 | 0.009 ± 0.0013
x1 = 1.713e-05, x2 = 0.001799 | 0.00703 ± 0.00091 | 0.0082 ± 0.001 | 0.0094 ± 0.0012 | 0.0107 ± 0.0014 | 0.0122 ± 0.0015
x1 = 2.084e-05, x2 = 0.0009002 | 0.00697 ± 0.00092 | 0.008 ± 0.001 | 0.0091 ± 0.0012 | 0.0102 ± 0.0013 | 0.0114 ± 0.0015
x1 = 2.126e-05, x2 = 0 | 0.00671 ± 0.0009 | 0.0076 ± 0.001 | 0.0084 ± 0.0011 | 0.0093 ± 0.0013 | 0.0101 ± 0.0014
x1 = 2.26e-05, x2 = 0.001799 | 0.0085 ± 0.001 | 0.0098 ± 0.0012 | 0.0112 ± 0.0013 | 0.0128 ± 0.0015 | 0.0144 ± 0.0017
x1 = 2.537e-05, x2 = 0.0009002 | 0.0082 ± 0.001 | 0.0094 ± 0.0012 | 0.0106 ± 0.0013 | 0.012 ± 0.0015 | 0.0134 ± 0.0016
x1 = 2.788e-05, x2 = 0.001799 | 0.0098 ± 0.0011 | 0.0113 ± 0.0013 | 0.0129 ± 0.0014 | 0.0146 ± 0.0016 | 0.0165 ± 0.0018
x1 = 2.811e-05, x2 = 0 | 0.0086 ± 0.001 | 0.0097 ± 0.0012 | 0.0108 ± 0.0013 | 0.0122 ± 0.0015 | 0.0131 ± 0.0016
x1 = 3.117e-05, x2 = 0.0009002 | 0.0097 ± 0.0011 | 0.0111 ± 0.0013 | 0.0125 ± 0.0014 | 0.014 ± 0.0016 | 0.0157 ± 0.0018
x1 = 3.335e-05, x2 = 0.001799 | 0.0111 ± 0.0012 | 0.0127 ± 0.0014 | 0.0145 ± 0.0016 | 0.0164 ± 0.0018 | 0.0184 ± 0.002
x1 = 3.46e-05, x2 = 0 | 0.0103 ± 0.0011 | 0.0116 ± 0.0013 | 0.0129 ± 0.0014 | 0.0145 ± 0.0016 | 0.0157 ± 0.0018
x1 = 3.679e-05, x2 = 0.0009002 | 0.011 ± 0.0012 | 0.0125 ± 0.0014 | 0.0141 ± 0.0015 | 0.0159 ± 0.0017 | 0.0178 ± 0.0019
x1 = 3.864e-05, x2 = 0.001799 | 0.0122 ± 0.0013 | 0.014 ± 0.0015 | 0.0159 ± 0.0017 | 0.018 ± 0.0019 | 0.0203 ± 0.0021
x1 = 4.108e-05, x2 = 0 | 0.0117 ± 0.0012 | 0.0131 ± 0.0014 | 0.0146 ± 0.0015 | 0.0161 ± 0.0017 | 0.0179 ± 0.0019
x1 = 4.386e-05, x2 = 0.0009001 | 0.0123 ± 0.0013 | 0.014 ± 0.0014 | 0.0157 ± 0.0016 | 0.0177 ± 0.0018 | 0.0199 ± 0.0021
x1 = 4.574e-05, x2 = 0.001799 | 0.0134 ± 0.0014 | 0.0153 ± 0.0016 | 0.0174 ± 0.0018 | 0.0197 ± 0.002 | 0.0222 ± 0.0023
x1 = 4.811e-05, x2 = 0 | 0.0129 ± 0.0013 | 0.0144 ± 0.0015 | 0.0161 ± 0.0017 | 0.0179 ± 0.0019 | 0.0198 ± 0.0021
x1 = 5.11e-05, x2 = 0.0009001 | 0.0133 ± 0.0014 | 0.0151 ± 0.0015 | 0.017 ± 0.0017 | 0.0192 ± 0.002 | 0.0215 ± 0.0022
x1 = 5.321e-05, x2 = 0.001799 | 0.0145 ± 0.0015 | 0.0165 ± 0.0017 | 0.0187 ± 0.0019 | 0.0213 ± 0.0022 | 0.024 ± 0.0024
x1 = 5.388e-05, x2 = 0 | 0.0137 ± 0.0014 | 0.0154 ± 0.0016 | 0.0172 ± 0.0018 | 0.0191 ± 0.002 | 0.0211 ± 0.0022
x1 = 5.781e-05, x2 = 0.0009001 | 0.0143 ± 0.0015 | 0.0162 ± 0.0017 | 0.0182 ± 0.0019 | 0.0205 ± 0.0021 | 0.023 ± 0.0024
x1 = 5.982e-05, x2 = 0 | 0.0145 ± 0.0015 | 0.0163 ± 0.0017 | 0.0182 ± 0.0019 | 0.0202 ± 0.0021 | 0.0224 ± 0.0023
x1 = 6.069e-05, x2 = 0.001799 | 0.0155 ± 0.0016 | 0.0177 ± 0.0018 | 0.02 ± 0.002 | 0.0227 ± 0.0023 | 0.0254 ± 0.0026
x1 = 6.433e-05, x2 = 0.0009001 | 0.0152 ± 0.0015 | 0.0172 ± 0.0018 | 0.0193 ± 0.002 | 0.0218 ± 0.0022 | 0.0244 ± 0.0025
x1 = 6.559e-05, x2 = 0 | 0.0153 ± 0.0016 | 0.0172 ± 0.0018 | 0.0192 ± 0.0019 | 0.0213 ± 0.0022 | 0.0236 ± 0.0024
x1 = 6.816e-05, x2 = 0.001799 | 0.0165 ± 0.0017 | 0.0187 ± 0.0019 | 0.0213 ± 0.0022 | 0.024 ± 0.0024 | 0.027 ± 0.0027
x1 = 7.081e-05, x2 = 0 | 0.016 ± 0.0016 | 0.018 ± 0.0018 | 0.02 ± 0.002 | 0.0223 ± 0.0023 | 0.0246 ± 0.0025
x1 = 7.104e-05, x2 = 0.0009001 | 0.0161 ± 0.0016 | 0.0182 ± 0.0019 | 0.0204 ± 0.0021 | 0.023 ± 0.0023 | 0.0258 ± 0.0026
x1 = 7.454e-05, x2 = 0.001799 | 0.0173 ± 0.0018 | 0.0197 ± 0.002 | 0.0222 ± 0.0022 | 0.0252 ± 0.0026 | 0.0283 ± 0.0029
x1 = 7.604e-05, x2 = 0 | 0.0167 ± 0.0017 | 0.0187 ± 0.0019 | 0.0209 ± 0.0021 | 0.0232 ± 0.0024 | 0.0258 ± 0.0026
x1 = 7.81e-05, x2 = 0.0009001 | 0.0171 ± 0.0018 | 0.0193 ± 0.002 | 0.0217 ± 0.0022 | 0.0244 ± 0.0025 | 0.0273 ± 0.0028
x1 = 8.072e-05, x2 = 0 | 0.0173 ± 0.0018 | 0.0194 ± 0.002 | 0.0217 ± 0.0022 | 0.0241 ± 0.0024 | 0.0266 ± 0.0027
x1 = 8.128e-05, x2 = 0.001799 | 0.0182 ± 0.0019 | 0.0207 ± 0.0021 | 0.0233 ± 0.0024 | 0.0265 ± 0.0027 | 0.0298 ± 0.003

CCO + C[N+](C)(C)CCC[N+]1(C)CCCCC1.N#C[N-]C#N.N#C[N-]C#N
100 kPa, x2 = 0
Conditions | viscosity [mPa·s]
293.15 K | 1.19 ± 0.12
303.15 K | 0.991 ± 0.099
313.15 K | 0.828 ± 0.083
323.15 K | 0.705 ± 0.071
333.15 K | 0.593 ± 0.059

CC(=O)[O-].CC[NH2+]CC + O
Conditions | electrical conductivity [S/m] | viscosity [mPa·s]
283.15 K, 100.9 kPa, x1 = 0.168 | – | 27.4 ± 1.5
283.15 K, 100.9 kPa, x1 = 0.24 | – | 55.1 ± 2.8
283.15 K, 100.9 kPa, x1 = 0.351 | – | 92.3 ± 4.7
288.15 K, 100.9 kPa, x1 = 0.549 | – | 105 ± 5.4
295.65 K, 100.9 kPa, x1 = 0.168 | – | 14.67 ± 0.8
298.15 K, 101 kPa, x1 = 0.0174 | 2.06 ± 0.062 | –
298.15 K, 101 kPa, x1 = 0.0967 | 2.21 ± 0.066 | –
298.15 K, 101 kPa, x1 = 0.199 | – | 14.82 ± 0.91
298.15 K, 101 kPa, x1 = 0.1997 | 1.52 ± 0.046 | –
298.15 K, 101 kPa, x1 = 0.6989 | 0.361 ± 0.011 | –
298.15 K, 101 kPa, x1 = 0.877 | – | 57.2 ± 3.7
300.65 K, 100.9 kPa, x1 = 0.168 | – | 11.78 ± 0.64
303.15 K, 100.9 kPa, x1 = 0.168 | 2.24 ± 0.23 | 10.62 ± 0.58
303.15 K, 100.9 kPa, x1 = 0.351 | – | 30.6 ± 1.5
305.65 K, 100.9 kPa, x1 = 0.24 | – | 17.47 ± 0.9
310.65 K, 100.9 kPa, x1 = 0.24 | – | 14.12 ± 0.72
310.65 K, 100.9 kPa, x1 = 0.549 | – | 32.6 ± 1.6
313.15 K, 100.9 kPa, x1 = 0.549 | – | 29.2 ± 1.5
315.65 K, 100.9 kPa, x1 = 0.119 | – | 4.25 ± 0.22
315.65 K, 100.9 kPa, x1 = 0.168 | – | 6.65 ± 0.36
315.65 K, 100.9 kPa, x1 = 0.714 | – | 30.1 ± 1.5
318.15 K, 100.9 kPa, x1 = 0.007 | 2.25 ± 0.39 | –
318.15 K, 100.9 kPa, x1 = 0.353 | 1.34 ± 0.14 | –
328.15 K, 100.9 kPa, x1 = 0.015 | – | 0.728 ± 0.04
328.15 K, 100.9 kPa, x1 = 0.549 | – | 16.18 ± 0.82
330.65 K, 100.9 kPa, x1 = 0.015 | – | 0.692 ± 0.038
330.65 K, 100.9 kPa, x1 = 0.055 | – | 1.339 ± 0.07
330.65 K, 100.9 kPa, x1 = 0.119 | – | 2.78 ± 0.14
330.65 K, 100.9 kPa, x1 = 0.168 | – | 4.17 ± 0.22
333.15 K, 100.9 kPa, x1 = 0.007 | 2.64 ± 0.65 | –
333.15 K, 100.9 kPa, x1 = 0.119 | – | 2.61 ± 0.13
333.15 K, 100.9 kPa, x1 = 0.351 | – | 9.26 ± 0.47
333.15 K, 100.9 kPa, x1 = 0.55 | 1.07 ± 0.11 | –
333.15 K, 100.9 kPa, x1 = 0.84 | – | 15.7 ± 0.79
335.65 K, 100.9 kPa, x1 = 0.168 | – | 3.63 ± 0.19
340.65 K, 100.9 kPa, x1 = 0.168 | – | 3.19 ± 0.17
343.15 K, 100.9 kPa, x1 = 0.055 | – | 1.052 ± 0.055
348.15 K, 100.9 kPa, x1 = 0.353 | 2.81 ± 0.28 | –
348.15 K, 100.9 kPa, x1 = 0.55 | 1.68 ± 0.17 | –
348.15 K, 100.9 kPa, x1 = 0.714 | 1.3 ± 0.13 | –
348.15 K, 100.9 kPa, x1 = 0.838 | 1.11 ± 0.11 | –
363.15 K, 100.9 kPa, x1 = 0.168 | 9.08 ± 0.91 | –
363.15 K, 100.9 kPa, x1 = 0.945 | 1.27 ± 0.13 | –

Reference: the CheMixHub ionic liquid set
